Legend:
[1] = Singlet oxygen quantum yield, indirect evaluation (1O2 scavenger absorbance); type: physicochemical
Protocol: Indirect evaluation: measurement in acetonitrile: the sample was prepared in an air-saturated acetonitrile solution with an absorption of 0.2 at the irradiation wavelength, N,N-dimethyl-4-nitrosoaniline aniline (RNO, 24 µM) and imidazole (12 mM). Measurement in PBS buffer: the sample was prepared in an air-saturated PBS solution containing the complex with an absorption of 0.2 at the irradiation wavelength, N,N-dimethyl-4-nitrosoaniline aniline (RNO, 20 µM) and histidine (10 mM). The samples were irradiated for various time points with an Atlas Photonics LUMOS BIO irradiator. The absorption of the samples was constantly monitored with a SpectraMax M2 Microplate Reader (Molecular Devices). The difference in absorption (A0 − A) at 420 nm for the measurement in acetonitrile or at 440 nm for the measurement in PBS was determined. The difference in absorption was then plotted against the irradiation times and the slope of the linear regression calculated. The absorption of the sample was corrected with an absorption correction factor. The singlet oxygen quantum yields were calculated using the same formulas as used for the direct evaluation.

Photobleaching by NMR = type: physicochemical; settings: 450 nm, 10 min, 13.2 J cm^−2, CD3CN
Protocol: The sample was dissolved in air saturated 0.7 mL CD3CN and stored in a NMR tube in the dark. A ^1H-NMR spectrum was measured directly after preparation to ensure the identity of the sample. The sample was then irradiated at 450 nm with an Atlas Photonics LUMOS BIO irradiator (10 min, 13.2 J cm^−2). Following this treatment, a ^1H-NMR spectrum was again measured.

[2] = test system: mouse colon carcinoma (CT-26) cells
Protocol: A total of 4 × 10^3 cells were seeded on 96-well plates and allowed to adhere overnight. The cells were treated with increasing concentrations of the sample diluted in cell media achieving a total volume of 200 μL. The cells were incubated with the sample for 8 h and, after this time, the medium refreshed. To study the phototoxic effect of the sample, the cells were exposed to 480 nm (spectral half-width: 20 nm, 10 min, 5.2 mW cm^−2, 3.1 J cm^−2) or 540 nm (spectral half-width: 30 nm, 40 min, 4.0 mW cm^−2, 9.5 J cm^−2) light using an Atlas Photonics LUMOS BIO irradiator. To study the dark cytotoxicity of the sample, the cells were not irradiated and the medium exchanged. The cells were grown for an additional 40 h at 37 °C. After this time, the medium was replaced with fresh medium containing resazurin with a final concentration of 0.2 mg mL^−1. The cells were incubated for 4 h and the amount of the fluorescent product resorufin determined (λex = 540 nm, λem = 590 nm) with a SpectraMax M2 Microplate Reader (Molecular Devices). The obtained data was analyzed with the GraphPad Prism software.

[3] = test system: human glioblastoma astrocytoma (U373) cells;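 further: Resazurin-to-resorufin fluorescence viability readout, 8 h compound exposure then medium change, light dose 3.1 J cm^−2 at 480 nm or 9.5 J cm^−2 at 540 nm, analysed 40 h later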

CN(C)c1ccc(/C=C/c2ccnc(-c3cc(/C=C/c4ccc(N(C)C)cc4)ccn3)c2)cc1.CN(C)c1ccc(/C=C/c2ccnc(-c3cc(/C=C/c4ccc(N(C)C)cc4)ccn3)c2)cc1.CN(C)c1ccc(/C=C/c2ccnc(-c3cc(/C=C/c4ccc(N(C)C)cc4)ccn3)c2)cc1.F[P-](F)(F)(F)(F)F.F[P-](F)(F)(F)(F)F.[Ru+2] [compound 2, [Ru((E,E′)-4,4′-Bis[p-(N,N-dimethylamino)styryl]-2,2′-bipyridine)3][PF6]2]
Singlet oxygen quantum yield, Indirect 450 nm CH3CN ([1]; 450 nm, CH3CN): 25% | Singlet oxygen quantum yield, Indirect 450 nm PBS ([1]; 450 nm, PBS): 3% | Singlet oxygen quantum yield, Indirect 540 nm CH3CN ([1]; 540 nm, CH3CN): 16% | Singlet oxygen quantum yield, Indirect 540 nm PBS ([1]; 540 nm, PBS): 1% | effect of irradiation on the molecular structure (NMR) (Photobleaching by NMR): decomposition of the compound | IC50 [2]: 42.6 µM | IC50 [3]: 61.4 µM

From article PMC7320011, “Rationally designed ruthenium complexes for 1- and 2-photon photodynamic therapy” (Nature Communications, 2020)
